Measured values from EP0394122A2, “Use of tetracyclines to manufacture a medicament for the treatment and prevention of AIDS” (priority 1989, dated 1990).

Experiments:
virus HIV (LAV-1-BRU) = assay: Protection against the cytopathogenic effect of HIV in infected CEM clone 13 cells (MTT viability); format: cell-based
Experimental: Le test est réalisé sur la lignée lymphoblastoïde CEM clone 13. Dans une microplaque de 96 puits on dépose 25 µl/puits d'une solution de produit à tester ou de tampon phosphate isotonique (TPI) dans le cas des contrôles. Les produits sont étudiés à différentes concentrations (souvent 8), à raison de 4 puits par concentration. On ajoute alors 125 µl d'une suspension de cellules CEM dans le milieu RPMI contenant 10 % de sérum de veau foetal, 40 U/ml de pénicilline, 40 µg/ml de streptomycine et 5 µg/ml de polybrène (3500 cellules par puits) et les microplaques sont incubées une heure à 37°C, sous une atmosphère contenant 5 % de gaz carbonique. Pour chaque concentration, l'essai est partagé en 2 parties : une partie sur cellules infectées, pour la détermination de l'activité antivirale et l'autre partie sur cellules non infectées, pour déterminer la cytotoxicité des produits. On infecte alors la première série avec HIV (100 µl par puit d'une suspension de virus LAV-1-BRU contenant 200-300 TCID50) tandis que l'autre série reçoit 100 µl de milieu RPMI tel que défini précédemment. Au bout de 7 jours d'incubation, 175 µl de surnageant sont prélevés et rejetés. La viabilité cellulaire est déterminée selon une modification de la technique décrite par R. Pauwels et coll., J. Virol. Meth., 20, 309-321 (1988).
Les puits, contenant encore les cellules (infectées ou non infectées), reçoivent 10 µl d'une solution de MTT (méthylthiazoletétrazolium) à 5 mg/ml dans du tampon phosphate isotonique. Pendant une période d'incubation de 4 heures, le MTT est converti en un sel de formazan (bleu) à l'intérieur des cellules vivantes et proportionnellement à leur nombre, alors que rien n'apparaît dans les puits ne contenant plus que des cellules mortes. On ajoute alors 120 µl d'isopropanol (contenant 0,04 mole/l d'acide chlorhydrique) et les microplaques sont agitées jusqu'à la solubilisation du bleu de formazan. L'absorption à 540 nm est lue avec un lecteur automatique de réactions ELISA en microplaques.
Pour les essais de plus longue durée, on procède comme décrit précédemment jusqu'au jour 7. A ce moment, 100 µl de cellules sont prélevés pour mesurer la proportion de cellules vivantes et le restant est remis en culture avec du milieu frais contenant les produits aux mêmes concentrations. Cette opération est répétée tous les 4 jours.

[1] = tested on: reverse transcriptase du virus HIV; assay: Reverse transcriptase activity in culture supernatant of infected, protected CEM cells (virus production); format: cell-based
From the text: Chaque échantillon est divisé en 2 parties, l'une recevant à nouveau le produit étudié et l'autre cultivée en l'absence de produit.
Les cellules sont cultivées pendant 2 mois.
Les cellules infectées traitées ou non de manière continue par la minocycline ou la doxycycline ont été examinées en ce qui concerne la production de virus. La technique utilisée pour la détermination virale a été celle du dosage de la reverse transcriptase du virus HIV.
L'activité de la reverse transcriptase est mesurée directement sur 50 µl de surnageant de culture. 10 µl de tampon contenant 0,5 M de KCl, 5 mM de dithiotreitol (DTT) et 0,5 % de Triton X-100 sont ajoutés à tous les micropuits contenant les 50 µl de surnageant à tester. 40 µl de tampon contenant 1,25 mM d'éthylène glycol-bis(β-aminoéthyl éther) (EGTA), 0,125 M de Tris.HCl pH 7,8, 12,5 mM de MgCl₂, 3 µCi de (³H) Thymidine triphosphate (TTP), 0,05 DO₂₆₀ d'acide polyadénylique - acide thymidylique (poly rA-oligo dT) sont ajoutés ensuite. La microplaque est couverte au moyen d'un film plastique et incubée 60 minutes à 37°C.
On arrête la réaction en ajoutant 20 µl d'une solution glacée de 120 mM de Na₄P₂O₇ dans 60 % d'acide trichloracétique et les échantillons sont placés 15 minutes sur un lit de glace.
Les précipités sont filtrés sur fibres de verre en utilisant un laveur de cellules (Skatron) et les filtres sont lavés avec une solution de 12 mM de Na₄P₂O₇ dans 5 % d'acide trichloracétique.
Les filtres sont séchés et la radioactivité est comptée après ajout d'un liquide scintillant. Les essais sont faits en triple.

[2] = product present du jour 0 au jour 18 (1,2 µg/ml), day 20 after infection
[3] = product present du jour 0 au jour 18 (1,2 µg/ml), day 39 after infection
[4] = product present du jour 0 au jour 18 (1,2 µg/ml), day 42 after infection
[5] = product present du jour 0 au jour 18 (1,2 µg/ml), day 46 after infection
[6] = product present du jour 0 au jour 18 (1,2 µg/ml), day 49 after infection
[7] = product present du jour 0 au jour 18 (1,2 µg/ml), day 53 after infection
[8] = product present du jour 0 au jour 18 (1,2 µg/ml), day 56 after infection
[9] = product present du jour 0 au jour 18 (1,2 µg/ml), day 60 after infection
[10] = product present du jour 0 au jour 18 (1,2 µg/ml), day 80 after infection
[11] = product present du jour 0 à la fin de l'expérience (1,2 µg/ml), day 20 after infection
[12] = product present du jour 0 à la fin de l'expérience (1,2 µg/ml), day 39 after infection
[13] = product present du jour 0 à la fin de l'expérience (1,2 µg/ml), day 42 after infection
[14] = product present du jour 0 à la fin de l'expérience (1,2 µg/ml), day 46 after infection
[15] = product present du jour 0 à la fin de l'expérience (1,2 µg/ml), day 49 after infection
[16] = product present du jour 0 à la fin de l'expérience (1,2 µg/ml), day 53 after infection
[17] = product present du jour 0 à la fin de l'expérience (1,2 µg/ml), day 56 after infection
[18] = product present du jour 0 à la fin de l'expérience (1,2 µg/ml), day 60 after infection
[19] = product present du jour 0 à la fin de l'expérience (1,2 µg/ml), day 80 after infection

Compound | Cellules infectées Densité optique (virus HIV (LAV-1-BRU); 0,01 µg/ml, JOUR 14) | Cellules infectées Densité optique (virus HIV (LAV-1-BRU); 0,01 µg/ml, JOUR 18) | Cellules infectées Densité optique (virus HIV (LAV-1-BRU); 0,01 µg/ml, day 7) | Cellules infectées Densité optique (virus HIV (LAV-1-BRU); 0,04 µg/ml, JOUR 14) | Cellules infectées Densité optique (virus HIV (LAV-1-BRU); 0,04 µg/ml, JOUR 18) | Cellules infectées Densité optique (virus HIV (LAV-1-BRU); 0,04 µg/ml, day 7) | Cellules infectées Densité optique (virus HIV (LAV-1-BRU); 0,12 µg/ml, JOUR 14) | Cellules infectées Densité optique (virus HIV (LAV-1-BRU); 0,12 µg/ml, JOUR 18) | Cellules infectées Densité optique (virus HIV (LAV-1-BRU); 0,12 µg/ml, day 7) | Cellules infectées Densité optique (virus HIV (LAV-1-BRU); 0,37 µg/ml, JOUR 14) | Cellules infectées Densité optique (virus HIV (LAV-1-BRU); 0,37 µg/ml, JOUR 18) | Cellules infectées Densité optique (virus HIV (LAV-1-BRU); 0,37 µg/ml, day 7) | Cellules infectées Densité optique (virus HIV (LAV-1-BRU); 10 µg/ml, JOUR 14) | Cellules infectées Densité optique (virus HIV (LAV-1-BRU); 10 µg/ml, JOUR 18) | Cellules infectées Densité optique (virus HIV (LAV-1-BRU); 10 µg/ml, day 7) | Cellules infectées Densité optique (virus HIV (LAV-1-BRU); 30 µg/ml, day 7) | Cellules infectées Densité optique (virus HIV (LAV-1-BRU); 1,11 µg/ml, JOUR 14) | Cellules infectées Densité optique (virus HIV (LAV-1-BRU); 1,11 µg/ml, JOUR 18) | Cellules infectées Densité optique (virus HIV (LAV-1-BRU); 1,11 µg/ml, day 7) | Cellules infectées Densité optique (virus HIV (LAV-1-BRU); 3,33 µg/ml, JOUR 14) | further results
doxycycline [Exemple 2] | 0,250 | 0,240 | 0,820 | 0,300 | 0,275 | 0,785 | 0,450 | 0,250 | 0,720 | 0,550 | 0,300 | 1,000 | 0,100 | 0,100 | 0,660 | 0,200 | 0,880 | 0,700 | 1,240 | 0,750 | Cellules infectées Densité optique (virus HIV (LAV-1-BRU); 3,33 µg/ml, JOUR 18): 0,750; Cellules infectées Densité optique (virus HIV (LAV-1-BRU); 3,33 µg/ml, day 7): 1,370; Activité de la reverse transcriptase [1, 2]: 21 coups/mn x 10⁻³; Activité de la reverse transcriptase [1, 3]: 30 coups/mn x 10⁻³; Activité de la reverse transcriptase [1, 4]: 31 coups/mn x 10⁻³; Activité de la reverse transcriptase [1, 5]: 21 coups/mn x 10⁻³; Activité de la reverse transcriptase [1, 6]: 24 coups/mn x 10⁻³; Activité de la reverse transcriptase [1, 7]: 14 coups/mn x 10⁻³; Activité de la reverse transcriptase [1, 8]: 2 coups/mn x 10⁻³; Activité de la reverse transcriptase [1, 9]: 3 coups/mn x 10⁻³; Activité de la reverse transcriptase [1, 10]: 2 coups/mn x 10⁻³; Activité de la reverse transcriptase [1, 11]: 25 coups/mn x 10⁻³; Activité de la reverse transcriptase [1, 12]: 26 coups/mn x 10⁻³; Activité de la reverse transcriptase [1, 13]: 31 coups/mn x 10⁻³; Activité de la reverse transcriptase [1, 14]: 27 coups/mn x 10⁻³; Activité de la reverse transcriptase [1, 15]: 18 coups/mn x 10⁻³; Activité de la reverse transcriptase [1, 16]: 10 coups/mn x 10⁻³; Activité de la reverse transcriptase [1, 17]: 2 coups/mn x 10⁻³; Activité de la reverse transcriptase [1, 18]: 1,4 coups/mn x 10⁻³; Activité de la reverse transcriptase [1, 19]: 2 coups/mn x 10⁻³
CN(C)c1ccc(O)c2c1C[C@H]1C[C@H]3[C@H](N(C)C)C(O)=C(C(N)=O)C(=O)[C@@]3(O)C(O)=C1C2=O [Exemple 5, minocycline] | 0,300 | 0,250 | 0,660 | 0,450 | 0,250 | 0,720 | 0,620 | 0,450 | 0,890 | 1,250 | 1,000 | 1,210 | 0,100 | 0,100 | 0,450 | 0,320 | 1,250 | 0,950 | 1,510 | 0,400 | Cellules infectées Densité optique (virus HIV (LAV-1-BRU); 3,33 µg/ml, JOUR 18): 0,350; Cellules infectées Densité optique (virus HIV (LAV-1-BRU); 3,33 µg/ml, day 7): 1,340; Activité de la reverse transcriptase [1, 2]: 27 coups/mn x 10⁻³; Activité de la reverse transcriptase [1, 3]: 21 coups/mn x 10⁻³; Activité de la reverse transcriptase [1, 4]: 37 coups/mn x 10⁻³; Activité de la reverse transcriptase [1, 5]: 19 coups/mn x 10⁻³; Activité de la reverse transcriptase [1, 6]: 21 coups/mn x 10⁻³; Activité de la reverse transcriptase [1, 7]: 17 coups/mn x 10⁻³; Activité de la reverse transcriptase [1, 8]: 3 coups/mn x 10⁻³; Activité de la reverse transcriptase [1, 9]: 2 coups/mn x 10⁻³; Activité de la reverse transcriptase [1, 10]: 3 coups/mn x 10⁻³; Activité de la reverse transcriptase [1, 11]: 25 coups/mn x 10⁻³; Activité de la reverse transcriptase [1, 12]: 33 coups/mn x 10⁻³; Activité de la reverse transcriptase [1, 13]: 33 coups/mn x 10⁻³; Activité de la reverse transcriptase [1, 14]: 29 coups/mn x 10⁻³; Activité de la reverse transcriptase [1, 15]: 37 coups/mn x 10⁻³; Activité de la reverse transcriptase [1, 16]: 14 coups/mn x 10⁻³; Activité de la reverse transcriptase [1, 17]: 2 coups/mn x 10⁻³; Activité de la reverse transcriptase [1, 18]: 2 coups/mn x 10⁻³; Activité de la reverse transcriptase [1, 19]: 5 coups/mn x 10⁻³
